# Test results from US9937217B2, “Method of inhibiting ABCG2 and related treatments” (The United States of America, as represented by the …, priority 2007, dated 2018).
# “And” between values parts separate entries of the source, which are not always exact repeats. Equal entries are not always repeated. Where two headings read alike, the source gives them in different places.
# Tests used:
# ABCG2 [1] = biological target: T1, ABCG2 (Homo sapiens, UniProt Q9UNQ0); assay type: cell-based; details: compound, ABCG2-transfected HEK293
# T1 sequence (Q9UNQ0 1-655): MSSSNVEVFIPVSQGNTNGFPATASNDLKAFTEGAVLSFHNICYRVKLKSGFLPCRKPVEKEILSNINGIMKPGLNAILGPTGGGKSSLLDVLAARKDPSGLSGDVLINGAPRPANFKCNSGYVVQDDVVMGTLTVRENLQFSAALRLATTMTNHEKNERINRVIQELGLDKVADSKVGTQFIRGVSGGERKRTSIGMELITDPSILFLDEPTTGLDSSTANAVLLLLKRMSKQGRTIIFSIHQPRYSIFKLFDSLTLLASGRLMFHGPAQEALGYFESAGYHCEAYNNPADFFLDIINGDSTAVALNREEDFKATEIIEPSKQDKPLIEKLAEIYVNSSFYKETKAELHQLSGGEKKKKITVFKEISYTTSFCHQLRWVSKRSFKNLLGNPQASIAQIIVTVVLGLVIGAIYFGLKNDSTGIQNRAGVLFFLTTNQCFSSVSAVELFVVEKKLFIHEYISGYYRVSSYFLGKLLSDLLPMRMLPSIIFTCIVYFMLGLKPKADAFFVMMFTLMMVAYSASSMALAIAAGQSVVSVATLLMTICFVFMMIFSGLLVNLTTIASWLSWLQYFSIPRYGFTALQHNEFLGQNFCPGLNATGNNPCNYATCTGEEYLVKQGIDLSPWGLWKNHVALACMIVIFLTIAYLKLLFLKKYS
# Protocol: At least 10000 events are collected. Dead cells are eliminated based on propidium iodide exclusion.
# Five compounds are examined for their ability to increase surface staining of the 5D3 antibody.
# The 5D3 shift assay is performed as described by Ozvegy-Laczka et al. with minor modifications. […] Cells are subsequently washed and incubated with APC-labeled goat anti-mouse secondary antibody (1:35) for 30 min after which the cells are washed and analyzed.
# ABCG2 [2] = biological target: T1, ABCG2; assay: Pheophorbide a (PhA) accumulation screening assay; assay type: cell-based
# Protocol: (§1) To prepare the cell culture, NCI-H460 human lung non-small-cell carcinoma cells (National Cancer Institute, Frederick, Md.) are selected for over-expression of ABCG2 by maintenance in RPMI1640/10% FBS supplemented with 20 nM mitoxantrone (Robey et al., Biochim. Biophys. Acta, 1512: 171-82 (2001)). After removal of mitoxantrone, cells are further grown in the same medium without mitoxantrone for 5-30 days. These cells are designated NCI-H460/MX20. Parental cells (low ABCG2 expression) (Robey et al., vide supra) are maintained in the same medium without mitoxantrone. ABCG2-transfected or MDR1-transfected (i.e. Pgp-expressing) HEK293 cells are maintained in 2 mg/ml G418 as previously described (Robey et al., Br. J. Cancer, 89: 1971-8 (2003)). MRP1-transfected HEK293 cells are maintained in 5 μM etoposide. MCF-7 FLV1000 cells are maintained in Richter's medium with 10% FCS and Pen/strep with 1000 nM flavopiridol (Robey et al., Clin. Cancer Res., 7: 145-52 (2001)).
# Accumulation of pheophorbide a, a fluorescent ABCG2 substrate (Jonker et al., Proc. Natl. Acad. Sci. USA, 99: 15649-54 (2002) and Robey et al., Cancer Res., 64: 1242-6 (2004)), formed the basis of the assay for inhibitors of ABCG2 activity (Henrich et al., J. Biomol. Screen, 11: 176-83 (2006)). Briefly, NCI-H460/MX20 cells are transferred to black wall, clear bottom 384-well polylysine-coated assay plates (Corning, Corning, N.Y.) and allowed to attach for several hours. Pheophorbide a (1 μM final concentration) is added immediately followed by compounds or vehicle (DMSO/PBS) control and incubated an additional 18 h. After removal of medium and washing with PBS containing Ca^2+ and Mg^2+, fluorescence intensity is read on a Tecan Safire fluorescence plate reader in bottom read mode, 395 nm excitation, 670 nm emission. Each plate has control wells containing 10 μM (final concentration) FTC. Data are normalized to FTC and reported as % of FTC fluorescence.
# ABCG2 [3] = biological target: T1, ABCG2; details: NCI-H460/MX20 cells; Henrich et al., 2006; read-out: Pheophorbide a IC50 for FTC; cited from earlier work
# ABCG2 [4] = biological target: T1, ABCG2; assay: BODIPY-prazosin efflux, ABCG2-transfected HEK293 cells (flow cytometry); details: 10 μM compound
# Protocol: (§2) APC fluorescence is measured with a 635 nm read diode laser and 561 nm longpass filter. At least 10000 events are collected. Dead cells are eliminated based on propidium iodide exclusion.
# (§3) Cells are then washed and incubated in substrate-free medium continuing with or without inhibitor for 1 h.
# ABCG2 [5] = biological target: T1, ABCG2; assay: Photoaffinity labeling of ABCG2 with [125I]-IAAP in MCF-7 FLV1000 membranes; assay type: binding; details: 20 μM compound; for activity at 10 min, 20 µM: human, crude membranes of MCF-7 FLV1000 cells expressing ABCG2, pH 7.5, probe [125I]-IAAP, 3-6 nM (2200 Ci/mmole), read-out: Blocking of 125I-IAAP binding: % of control binding
# Protocol: ABCG2 expressed in MCF-7 FLV1000 cells is photo-labeled with [^125I]-IAAP as described previously (Shukla et al., Biochemistry, 45: 8940-51 (2006)). Briefly, crude membranes (1 mg protein/me of MCF-7 FLV1000 cells are incubated with 20 μM of the indicated compound for 10 min at room temperature in 50 mM Tris-HCl, pH 7.5. 3-6 nM [^125I]-IAAP (2200 Ci/mmole) (PerkinElmer Life Sciences, Wellesley, Mass.) is added, and the samples are incubated for an additional 5 min under subdued light. The samples are then exposed to ultraviolet (UV, 365 nm) light for 10 min, and the labeled ABCG2 is immunoprecipitated using BXP-21 antibody. The radioactivity incorporated into the ABCG2 band is quantified using the STORM 860 PhosphorImager system (Molecular Dynamics, Sunnyvale, Calif.) and ImageQuaNT software (Molecular Dynamics).
# NCI-H460/MX20 cells = assay: Sensitization of ABCG2-overexpressing cells to killing by mitoxantrone (XTT assay); assay type: cell-based, human; details: for MX sensitization: % NCI-H460/MX20 cell survival in the presence of compound and mitoxantrone: 10 μM compound
# Protocol: After removal of mitoxantrone, cells are further grown in the same medium without mitoxantrone for 5-30 days. These cells are designated NCI-H460/MX20. Parental cells (low ABCG2 expression) (Robey et al., vide supra) are maintained in the same medium without mitoxantrone. […] MRP1-transfected HEK293 cells are maintained in 5 μM etoposide.
# Final DMSO concentration is 0.2% (v/v).
# Pgp = Pgp (Homo sapiens, UniProt P08183)
# Protocol: as §2, §3
# MRP1 = biological target: T2, MRP1 (Homo sapiens, UniProt P33527); assay: Calcein efflux, MRP1-transfected HEK293 cells (flow cytometry); assay type: cell-based; details: 10 μM compound
# T2 construct: expressed in transfected cells; host or cells: HEK293
# Protocol: as §2, §3
# NCI-H460 cells = assay: Mitoxantrone / compound cytotoxicity in parental cells (XTT assay); assay type: cell-based; details: Homo sapiens, 48 h; unselected NCI-H460 cells, 30 μM mitoxantrone, 2 days, (sd); read-out: Cell numbers, % of control (vehicle), mitoxantrone alone
# Protocol: as §1
# The ability of compounds to sensitize NCI-H460/MX20 cells to killing by mitoxantrone is assessed as described in Henrich et al. (J. Biomol. Screen, 11: 176-83 (2006)). ABCG2 over-expressing cells or parental cells are treated with mitoxantrone in the presence or absence of 10 μM compound (or 1 μM FTC) and cell numbers assessed after 2 d by an XTT assay (Scudiero et al., Cancer Res., 48: 4827-33 (1988)). […]
# [6] = NCI-H460/MX20 cells, PhA accumulation, read-out: Pheophorbide a IC50
# T2 sequence (P33527 whole entry): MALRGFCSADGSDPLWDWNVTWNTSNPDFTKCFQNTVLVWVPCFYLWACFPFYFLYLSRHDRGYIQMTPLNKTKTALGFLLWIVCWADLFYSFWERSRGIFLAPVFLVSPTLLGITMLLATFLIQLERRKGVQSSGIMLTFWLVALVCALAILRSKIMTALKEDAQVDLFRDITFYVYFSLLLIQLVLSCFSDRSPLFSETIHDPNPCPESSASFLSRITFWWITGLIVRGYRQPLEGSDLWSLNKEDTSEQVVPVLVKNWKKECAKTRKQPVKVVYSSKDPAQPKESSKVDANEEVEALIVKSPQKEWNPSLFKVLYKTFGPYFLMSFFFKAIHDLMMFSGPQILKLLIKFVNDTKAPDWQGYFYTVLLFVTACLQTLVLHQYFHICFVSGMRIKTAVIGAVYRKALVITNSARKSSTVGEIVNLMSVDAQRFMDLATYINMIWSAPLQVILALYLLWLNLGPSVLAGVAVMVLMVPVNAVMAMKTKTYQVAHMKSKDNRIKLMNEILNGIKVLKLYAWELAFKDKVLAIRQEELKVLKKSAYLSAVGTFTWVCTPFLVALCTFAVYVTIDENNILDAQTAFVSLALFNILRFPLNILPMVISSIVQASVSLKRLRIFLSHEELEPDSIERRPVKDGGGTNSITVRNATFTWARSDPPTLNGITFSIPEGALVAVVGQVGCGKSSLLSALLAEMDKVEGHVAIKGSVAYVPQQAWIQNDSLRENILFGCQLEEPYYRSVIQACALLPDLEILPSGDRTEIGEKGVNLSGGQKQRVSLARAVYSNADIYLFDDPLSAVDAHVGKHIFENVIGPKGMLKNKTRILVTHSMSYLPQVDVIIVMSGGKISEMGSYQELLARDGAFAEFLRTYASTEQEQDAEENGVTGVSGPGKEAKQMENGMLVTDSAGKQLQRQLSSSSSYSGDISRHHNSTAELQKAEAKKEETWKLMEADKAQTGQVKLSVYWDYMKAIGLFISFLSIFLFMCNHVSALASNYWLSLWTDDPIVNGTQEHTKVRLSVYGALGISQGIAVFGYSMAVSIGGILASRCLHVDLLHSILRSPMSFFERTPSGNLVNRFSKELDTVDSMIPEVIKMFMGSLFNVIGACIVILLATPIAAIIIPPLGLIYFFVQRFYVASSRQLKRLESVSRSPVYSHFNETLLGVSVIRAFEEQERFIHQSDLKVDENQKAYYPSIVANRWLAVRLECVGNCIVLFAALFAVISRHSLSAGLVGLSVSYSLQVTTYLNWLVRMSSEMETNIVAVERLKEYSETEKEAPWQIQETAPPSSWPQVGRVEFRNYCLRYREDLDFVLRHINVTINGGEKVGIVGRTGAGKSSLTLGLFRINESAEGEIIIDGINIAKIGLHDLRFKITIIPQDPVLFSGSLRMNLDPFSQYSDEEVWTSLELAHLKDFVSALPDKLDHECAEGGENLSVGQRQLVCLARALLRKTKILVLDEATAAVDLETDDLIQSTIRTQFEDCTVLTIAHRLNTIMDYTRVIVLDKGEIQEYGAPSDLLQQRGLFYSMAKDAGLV
# Pgp, sequence (P08183 whole entry): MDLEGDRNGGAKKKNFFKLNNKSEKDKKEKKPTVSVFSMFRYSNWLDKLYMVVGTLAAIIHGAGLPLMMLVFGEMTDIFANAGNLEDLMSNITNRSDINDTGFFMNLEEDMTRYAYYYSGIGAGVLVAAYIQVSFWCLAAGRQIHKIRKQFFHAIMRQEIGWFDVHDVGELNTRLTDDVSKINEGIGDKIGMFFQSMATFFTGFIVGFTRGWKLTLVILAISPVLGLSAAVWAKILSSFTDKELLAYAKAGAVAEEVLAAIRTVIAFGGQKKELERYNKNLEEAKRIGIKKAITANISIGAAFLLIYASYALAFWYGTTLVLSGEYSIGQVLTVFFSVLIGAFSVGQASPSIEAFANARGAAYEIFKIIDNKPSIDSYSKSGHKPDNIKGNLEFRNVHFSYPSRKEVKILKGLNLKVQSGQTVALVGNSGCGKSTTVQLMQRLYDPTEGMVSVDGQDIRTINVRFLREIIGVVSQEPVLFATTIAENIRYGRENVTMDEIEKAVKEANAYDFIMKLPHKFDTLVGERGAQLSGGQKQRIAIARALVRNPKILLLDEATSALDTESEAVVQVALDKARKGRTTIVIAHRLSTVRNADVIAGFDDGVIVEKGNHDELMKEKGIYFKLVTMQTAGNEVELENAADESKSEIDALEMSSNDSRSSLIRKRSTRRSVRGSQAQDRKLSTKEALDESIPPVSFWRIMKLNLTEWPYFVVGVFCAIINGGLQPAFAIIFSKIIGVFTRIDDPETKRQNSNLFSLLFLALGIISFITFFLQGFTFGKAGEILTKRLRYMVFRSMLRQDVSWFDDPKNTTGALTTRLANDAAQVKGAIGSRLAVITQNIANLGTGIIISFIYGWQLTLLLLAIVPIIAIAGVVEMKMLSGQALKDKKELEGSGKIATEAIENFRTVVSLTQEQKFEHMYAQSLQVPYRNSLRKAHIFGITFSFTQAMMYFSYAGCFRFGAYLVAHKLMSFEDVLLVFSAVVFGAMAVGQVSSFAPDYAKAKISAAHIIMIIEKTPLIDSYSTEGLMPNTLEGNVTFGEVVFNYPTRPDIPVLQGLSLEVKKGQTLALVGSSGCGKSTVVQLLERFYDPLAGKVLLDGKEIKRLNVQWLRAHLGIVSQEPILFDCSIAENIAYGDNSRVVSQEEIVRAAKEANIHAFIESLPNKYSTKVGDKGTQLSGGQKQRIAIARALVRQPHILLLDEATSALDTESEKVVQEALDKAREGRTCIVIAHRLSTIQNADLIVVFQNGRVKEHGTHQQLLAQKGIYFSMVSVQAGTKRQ
5D3 staining: treated/control ratio (ABCG2 [1]),BODIPY-prazosin efflux: treated/control ratio (ABCG2 [4]),"Pheophorbide a total, % of FTC response (ABCG2 [2]; human, 18 h, 10 µM)","Pgp inhibition, rhodamine efflux: treated/control ratio (Pgp; human, 10 µM)","activity at 10 min, 20 µM (ABCG2 [5])","MRP1 inhibition, calcein efflux: treated/control ratio (MRP1)",IC50 (ABCG2 [2]; [6]),"Pgp inhibition, rhodamine efflux: treated/control ratio (Pgp; valspodar 3 μg/mL, positive control)",SMILES,"Pheophorbide a total, % of FTC response (ABCG2 [2]; 10 μM compound, NCI-H460/MX20 cells, normalized to 10 μM FTC)",IC50 (ABCG2 [3]),Blocking of 125I-IAAP binding: % of control binding (ABCG2 [5]),"MX sensitization: % NCI-H460/MX20 cell survival in the presence of FTC and mitoxantrone (NCI-H460/MX20 cells; 1 μM FTC, 30 μM mitoxantrone, 2 d)",IC50 (ABCG2 [2]),"MX sensitization: % NCI-H460/MX20 cell survival in the presence of compound and mitoxantrone (NCI-H460/MX20 cells; 30 μM mitoxantrone, 2 d)",activity at 30 µM (NCI-H460 cells),"Cell number, % of control, mitoxantrone alone (NCI-H460/MX20 cells; NCI-H460/MX20 cells, mitoxantrone treatment, (sd))"
3.6,3.5,76.6%,0.77,33.5%,1.3,2.6 µM,–,Cn1ncc2c(NCCc3ccccc3)nc(Cl)nc21 [NSC19139],–,–,–,–,–,30.0%,–,–
3.7,2.0,67.2%,0.84,19.1%,0.81,4.3 µM,–,O=C(O)c1ccc(/C=N/N=C2c3ccccc3-c3ccccc32)cc1 [NSC120688],–,–,–,–,–,20.9%,–,–
3.7,2.6,104.5%,0.64,34.2%,0.81,3.9 µM,–,COc1cc2c[n+](C)c3c4cc(OC)c(OC)cc4ccc3c2cc1OC [NSC168201],–,–,–,–,–,21.2%,–,–
3.2,3.6,63.8%,0.84,48.7%,1.8,–,–,Cc1cc(O)nc2cc3oc4ccccc4c3cc12 [NSC375985],–,–,–,–,3.7 µM,27.6%,–,–

# Further lines, the compound ahead of its results:
SMILES,5D3 staining: treated/control ratio (ABCG2 [1]),BODIPY-prazosin efflux: treated/control ratio (ABCG2 [4]),"Pheophorbide a total, % of FTC response (ABCG2 [2]; human, 18 h, 10 µM)","Pgp inhibition, rhodamine efflux: treated/control ratio (Pgp; human, 10 µM)","activity at 10 min, 20 µM (ABCG2 [5])","MRP1 inhibition, calcein efflux: treated/control ratio (MRP1)",IC50 (ABCG2 [2]; [6]),"Pgp inhibition, rhodamine efflux: treated/control ratio (Pgp; valspodar 3 μg/mL, positive control)","Pheophorbide a total, % of FTC response (ABCG2 [2]; 10 μM compound, NCI-H460/MX20 cells, normalized to 10 μM FTC)",IC50 (ABCG2 [3]),Blocking of 125I-IAAP binding: % of control binding (ABCG2 [5]),"MX sensitization: % NCI-H460/MX20 cell survival in the presence of FTC and mitoxantrone (NCI-H460/MX20 cells; 1 μM FTC, 30 μM mitoxantrone, 2 d)",IC50 (ABCG2 [2]),"MX sensitization: % NCI-H460/MX20 cell survival in the presence of compound and mitoxantrone (NCI-H460/MX20 cells; 30 μM mitoxantrone, 2 d)",activity at 30 µM (NCI-H460 cells),"Cell number, % of control, mitoxantrone alone (NCI-H460/MX20 cells; NCI-H460/MX20 cells, mitoxantrone treatment, (sd))"
"COc1ccc2c3c([nH]c2c1)[C@H](C=C(C)C)N1C(=O)[C@@H]2CCCN2C(=O)[C@@H]1C3 [FTC, fumitremorgin C, reference compound]",3.7,3.5,–,–,–,–,–,–,100%,0.8 µM,32.7%,24.5±1.5% and 24.5%,–,–,–,–
Cn1ncc2c(Nc3cccc(Cl)c3)nc(Nc3cccc(Cl)c3)nc21 [NSC11668],4.0,5.9,84.1%,0.73,24.6%,1.2,–,–,–,–,–,–,4.5 µM,21.9%,–,–
"O=C1c2c(O)ccc(O)c2C(=O)c2c(NCCNCCO)ccc(NCCNCCO)c21 [mitoxantrone, reference compound]",–,–,–,–,–,–,–,–,–,–,–,–,–,–,21.6 ± 1.6%,56.1±2.1%
"C/C=C/C[C@@H](C)C(=O)[C@H]1C(=O)N[C@@H](C(C)C)C(=O)N(C)CC(=O)N(C)[C@@H](CC(C)C)C(=O)N[C@@H](C(C)C)C(=O)N(C)[C@@H](CC(C)C)C(=O)N[C@@H](C)C(=O)N[C@H](C)C(=O)N(C)[C@@H](CC(C)C)C(=O)N(C)[C@@H](CC(C)C)C(=O)N(C)[C@@H](C(C)C)C(=O)N1C [valspodar, reference compound]",–,–,–,–,–,–,–,14.9,–,–,–,–,–,–,–,–
